Values quoted from earlier work in patent US6908630B2, “Combinations of sesquiterpene lactones and ditepene triepoxide lactones for synergistic inhibition of cyclooxygenase-2” (Metaproteomics, LLC, priority 2000, dated 2005).

Details: gastrointestinal disturbance, nausea and vomiting, hypotension, edema

Q: For `CC(C)[C@]12O[C@H]1[C@@H]1O[C@]13[C@]1(O[C@H]1C[C@H]1C4=C(CC[C@@]13C)C(=O)OC4)[C@@H]2O` [Triptolide], which “patients showing some type of side effects” value is on record?
A: The value was “Approximately 28%”.
